Test results: ChEMBL document CHEMBL1133030, “Synthesis and in vitro evaluation of human FP-receptor selective prostaglandin analogues” (Bioorg Med Chem Lett, 2000)

How the values were obtained:
[1] = target: T1, Prostaglandin F2-alpha receptor (Homo sapiens, UniProt P43088); experiment: Displacement of [3H]PGF-2 from human FP-receptor expressed in CHO-KI cells; format: cell-based
[2] = target: T2, Prostaglandin E2 receptor EP1 subtype (Homo sapiens, UniProt P34995); experiment: Displacement of [3H]PGE-2 from Prostaglandin E receptor EP1 expressed in CHO-KI cells; format: cell-based
T2 sequence (P34995 whole entry): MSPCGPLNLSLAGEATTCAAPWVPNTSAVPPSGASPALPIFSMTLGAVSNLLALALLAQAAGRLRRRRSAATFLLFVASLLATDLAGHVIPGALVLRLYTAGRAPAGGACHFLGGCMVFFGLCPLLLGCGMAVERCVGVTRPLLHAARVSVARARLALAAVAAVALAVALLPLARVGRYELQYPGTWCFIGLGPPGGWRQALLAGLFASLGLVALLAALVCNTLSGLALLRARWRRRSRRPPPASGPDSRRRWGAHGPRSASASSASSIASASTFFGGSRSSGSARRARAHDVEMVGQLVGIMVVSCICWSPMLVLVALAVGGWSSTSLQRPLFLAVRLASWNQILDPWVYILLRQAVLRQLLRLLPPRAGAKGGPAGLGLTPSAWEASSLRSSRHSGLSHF

[3] = target: T3, Prostaglandin E2 receptor EP3 subtype (Homo sapiens, UniProt P43115); experiment: Displacement of [3H]PGE-2 from human Prostaglandin E receptor EP3 expressed in CHO-KI cells; format: cell-based
T3 sequence (P43115 whole entry): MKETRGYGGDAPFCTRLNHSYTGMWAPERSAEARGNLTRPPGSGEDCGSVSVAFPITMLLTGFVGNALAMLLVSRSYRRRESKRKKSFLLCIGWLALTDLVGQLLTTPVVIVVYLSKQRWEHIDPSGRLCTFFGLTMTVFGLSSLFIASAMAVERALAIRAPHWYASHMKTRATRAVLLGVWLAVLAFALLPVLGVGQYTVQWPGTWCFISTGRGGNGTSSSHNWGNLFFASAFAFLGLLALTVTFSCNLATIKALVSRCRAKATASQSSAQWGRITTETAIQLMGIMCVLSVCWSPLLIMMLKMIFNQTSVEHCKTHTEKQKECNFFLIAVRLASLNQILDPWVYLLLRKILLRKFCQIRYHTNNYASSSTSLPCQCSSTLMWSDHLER

Thromboxane A2 receptor [4] = target: T4, Thromboxane A2 receptor (Homo sapiens, UniProt P21731); experiment: Displacement of [3H]-U-46,619 from human TP-receptor expressed in CHO-KI cells; format: cell-based
T4 sequence (P21731 whole entry): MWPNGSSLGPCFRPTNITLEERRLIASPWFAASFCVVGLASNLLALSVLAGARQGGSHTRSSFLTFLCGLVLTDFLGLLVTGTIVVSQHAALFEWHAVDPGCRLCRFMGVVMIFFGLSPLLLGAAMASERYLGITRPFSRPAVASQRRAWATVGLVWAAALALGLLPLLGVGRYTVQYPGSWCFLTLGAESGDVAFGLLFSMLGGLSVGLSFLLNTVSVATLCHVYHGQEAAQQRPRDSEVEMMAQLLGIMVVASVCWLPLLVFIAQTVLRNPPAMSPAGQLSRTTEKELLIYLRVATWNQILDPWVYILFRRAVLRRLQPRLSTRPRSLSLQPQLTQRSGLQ

[5] = target: T2, Prostaglandin E2 receptor EP1 subtype; experiment: Functional activity in RAT-1cells, transiently-transfected with human Prostaglandin E receptor EP1 (% of control ligand, 17-phi-PGE2=80%)
[6] = target: T3, Prostaglandin E2 receptor EP3 subtype; experiment: Functional activity in RAT-1cells, transiently-transfected with human Prostaglandin E receptor EP3(% of control ligand, sulprostone=75%)
Thromboxane A2 receptor [7] = target: T4, Thromboxane A2 receptor; experiment: Functional activity in RAT-1cells, transiently-transfected with human TP-receptor (% of control ligand, [3H]-U-46,619=100%)
[8] = target: T2, Prostaglandin E2 receptor EP1 subtype; experiment: Functional activity in RAT-1cells, transiently-transfected with human Prostaglandin E receptor EP1 (% of control ligand, 17-phi-PGE2<20%)
[9] = target: T1, Prostaglandin F2-alpha receptor; experiment: Functional activity in RAT-1cells, transiently-transfected with human FP-receptor (% of control ligand, fluprostenol<20%)
[10] = target: T1, Prostaglandin F2-alpha receptor; experiment: Displacement of [3H]PGF2-alpha from human FP-receptor expressed in CHO-KI cells; format: cell-based
[11] = target: T3, Prostaglandin E2 receptor EP3 subtype; experiment: Functional activity in RAT-1cells, transiently-transfected with human Prostaglandin E receptor EP3 (% of control ligand, sulprostone<20%)
Thromboxane A2 receptor [12] = target: T4, Thromboxane A2 receptor; experiment: Functional activity in RAT-1cells, transiently-transfected with human TP-receptor (% of control ligand, [3H]-U-46,619<20%)
[13] = target: T2, Prostaglandin E2 receptor EP1 subtype; experiment: Functional activity in RAT-1cells, transiently-transfected with human Prostaglandin E receptor EP1 (% of control ligand, 17-phi-PGE2=100%)
[14] = target: T1, Prostaglandin F2-alpha receptor; experiment: Functional activity in RAT-1cells, transiently-transfected with human FP-receptor (% of control ligand, fluprostenol=90%)
Thromboxane A2 receptor [15] = target: T4, Thromboxane A2 receptor; experiment: Functional activity in RAT-1cells, transiently-transfected with human TP-receptor (% of control ligand, [3H]-U-46,619=50%)
[16] = target: T3, Prostaglandin E2 receptor EP3 subtype; experiment: Functional activity in RAT-1cells, transiently-transfected with human Prostaglandin E receptor EP3 (% of control ligand, sulprostone<50%)
[17] = target: T2, Prostaglandin E2 receptor EP1 subtype; experiment: Compound was evaluated for its ability to displace [3H]PGE-2 from human Prostaglandin E receptor EP1 isolated from CHO-KI cells (% of control ligand, 17-phi-PGE2=80%); format: cell-based
[18] = target: T3, Prostaglandin E2 receptor EP3 subtype; experiment: Functional activity in RAT-1cells, transiently-transfected with human Prostaglandin E receptor EP3 (% of control ligand, sulprostone=50%)
Thromboxane A2 receptor [19] = target: T4, Thromboxane A2 receptor; experiment: Functional activity in RAT-1cells, transiently-transfected with human TP-receptor (% of control ligand, [3H]-U-46,619=95%)
[20] = target: T1, Prostaglandin F2-alpha receptor; experiment: Functional activity in RAT-1cells, transiently-transfected with human FP-receptor (% of control ligand, fluprostenol=100%)
Thromboxane A2 receptor [21] = target: T4, Thromboxane A2 receptor; experiment: Functional activity in RAT-1cells, transiently-transfected with human TP-receptor (% of control ligand, [3H]-U-46,619=90%)
[22] = target: T1, Prostaglandin F2-alpha receptor; experiment: Functional activity in RAT-1cells, transiently-transfected with human FP-receptor (% of control ligand, fluprostenol=50%)
[23] = target: T2, Prostaglandin E2 receptor EP1 subtype; experiment: Functional activity in RAT-1cells, transiently-transfected with human Prostaglandin E receptor EP1 (% of control ligand, 17-phi-PGE2<50%)
[24] = target: T3, Prostaglandin E2 receptor EP3 subtype; experiment: Functional activity in RAT-1cells, transiently-transfected with human Prostaglandin E receptor EP3 (% of control ligand, sulprostone=130%)
[25] = target: T1, Prostaglandin F2-alpha receptor; experiment: Functional activity in RAT-1cells, transiently-transfected with human FP-receptor (% of control ligand, fluprostenol=150%)
[26] = target: T3, Prostaglandin E2 receptor EP3 subtype; experiment: Compound was evaluated for its ability to displace [3H]-PGE-2 from human Prostaglandin E receptor EP3 isolated from CHO-KI cells; format: cell-based
[27] = target: T1, Prostaglandin F2-alpha receptor; experiment: Functional activity in RAT-1cells, transiently-transfected with human FP-receptor (% of control ligand, fluprostenol=87%)

T1 sequence (P43088 whole entry): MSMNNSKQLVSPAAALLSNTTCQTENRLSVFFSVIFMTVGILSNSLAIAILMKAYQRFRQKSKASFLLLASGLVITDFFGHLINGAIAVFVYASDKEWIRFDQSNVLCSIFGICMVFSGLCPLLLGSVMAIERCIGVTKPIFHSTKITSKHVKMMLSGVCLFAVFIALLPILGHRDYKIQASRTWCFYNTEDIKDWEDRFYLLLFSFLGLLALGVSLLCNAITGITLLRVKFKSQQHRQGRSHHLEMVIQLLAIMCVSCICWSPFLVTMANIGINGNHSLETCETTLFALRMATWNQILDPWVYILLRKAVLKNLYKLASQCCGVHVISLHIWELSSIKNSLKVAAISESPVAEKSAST

Compound	IC50 [1]	IC50 [2]	IC50 [3]	IC50 (Thromboxane A2 receptor [4])	also measured
CCc1cccc(CC[C@H](O)CC[C@@H]2[C@@H](CCCCCCC(=O)O)[C@@H](O)C[C@H]2O)c1	0.54 µM	> 10 µM	> 10 µM	> 10 µM	
O=C(O)CCC/C=C\C[C@@H]1[C@@H](/C=C/[C@@H](O)COc2cccc(Cl)c2)[C@H](O)C[C@@H]1O [CLOPROSTENOL]					EC50 [5]: 0.76 µM; EC50 [6]: 5 µM; EC50 (Thromboxane A2 receptor [7]): 2.4 µM
CCCCC(C)(C)[C@H](O)CC[C@@H]1[C@@H](CCCCCCC(=O)O)[C@@H](O)C[C@H]1O					EC50 [8]: > 20 µM; EC50 [9]: > 20 µM; IC50 [10]: > 1 µM; EC50 [11]: > 20 µM; EC50 (Thromboxane A2 receptor [12]): > 20 µM
O=C(O)CCCCCC[C@@H]1[C@@H](CC[C@@H](O)CCc2cccc(C(F)(F)F)c2)[C@H](O)C[C@@H]1O	0.0086 µM	> 10 µM	> 10 µM	> 10 µM	IC50 [10]: 0.0086 µM; EC50 [13]: 30 µM; EC50 [14]: 0.085 µM; EC50 (Thromboxane A2 receptor [15]): > 20 µM; EC50 [16]: > 20 µM
O=C(O)CCCCCC[C@@H]1[C@@H](CC[C@@H](O)CCc2ccccc2)[C@H](O)C[C@@H]1O	0.082 µM	1.1 µM	> 10 µM	> 10 µM	
COc1cccc(CC[C@H](O)CC[C@@H]2[C@@H](CCCCCCC(=O)O)[C@@H](O)C[C@H]2O)c1	1.62 µM		> 10 µM	> 10 µM	IC50 [17]: > 10 µM
COc1ccccc1CC[C@H](O)CC[C@@H]1[C@@H](CCCCCCC(=O)O)[C@@H](O)C[C@H]1O	5.89 µM				
CCCCC[C@H](O)/C=C/[C@@H]1[C@@H](C/C=C\CCCC(=O)O)[C@@H](O)C[C@H]1O [DINOPROST]					EC50 [5]: 0.6 µM; EC50 [18]: 2.3 µM; EC50 (Thromboxane A2 receptor [19]): 1.4 µM
O=C(O)CCCCCC[C@@H]1[C@@H](CC[C@@H](O)COc2cccc(Cl)c2)[C@H](O)C[C@@H]1O					EC50 [20]: 0.009 µM; IC50 [10]: 0.001 µM; EC50 [13]: 19 µM; EC50 (Thromboxane A2 receptor [21]): 8 µM; EC50 [16]: > 20 µM
CCCCC[C@H](O)CC[C@@H]1[C@@H](CCCCCCC(=O)O)[C@@H](O)C[C@H]1O					IC50 [10]: 0.522 µM; EC50 (Thromboxane A2 receptor [7]): 30 µM; EC50 [22]: 5 µM; EC50 [16]: > 20 µM; EC50 [23]: > 10 µM
CCCCC(C)(C)[C@H](O)/C=C/[C@@H]1[C@@H](C/C=C\CCCC(=O)O)[C@@H](O)C[C@H]1O					EC50 [5]: 0.3 µM; EC50 [24]: 2 µM; IC50 [10]: 0.016 µM; EC50 [25]: 0.09 µM; EC50 (Thromboxane A2 receptor [19]): 0.024 µM
COc1ccc(CC[C@H](O)CC[C@@H]2[C@@H](CCCCCCC(=O)O)[C@@H](O)C[C@H]2O)cc1	0.29 µM	> 10 µM	> 10 µM	> 10 µM	
Cc1ccccc1CC[C@H](O)CC[C@@H]1[C@@H](CCCCCCC(=O)O)[C@@H](O)C[C@H]1O	0.63 µM	10 µM	> 10 µM	> 10 µM	
O=C(O)CCCCCC[C@@H]1[C@@H](CC[C@@H](O)CCc2ccccc2C(F)(F)F)[C@H](O)C[C@@H]1O	2.14 µM				
O=C(O)CCC/C=C\C[C@@H]1[C@@H](/C=C/[C@@H](O)CCc2cccc(C(F)(F)F)c2)[C@H](O)C[C@@H]1O					EC50 [27]: 0.064 µM; IC50 [10]: 0.01 µM; EC50 (Thromboxane A2 receptor [15]): 2.1 µM; EC50 [16]: > 20 µM; EC50 [23]: > 20 µM
O=C(O)CCCCCC[C@@H]1[C@@H](CC[C@@H](O)CCc2ccc(F)cc2)[C@H](O)C[C@@H]1O	0.21 µM	3.45 µM	> 10 µM	> 10 µM	

Second part, led by results:

IC50 [1]	IC50 [2]	IC50 [3]	IC50 (Thromboxane A2 receptor [4])	Compound	also measured
0.042 µM	10 µM	3.7 µM	> 10 µM	O=C(O)CCCCCC[C@@H]1[C@@H](CC[C@@H](O)CCc2cccc(F)c2)[C@H](O)C[C@@H]1O	
0.076 µM	3.1 µM	> 10 µM	> 10 µM	O=C(O)CCCCCC[C@@H]1[C@@H](CC[C@@H](O)CCc2ccccc2F)[C@H](O)C[C@@H]1O	
4.4 µM				Cc1ccc(CC[C@H](O)CC[C@@H]2[C@@H](CCCCCCC(=O)O)[C@@H](O)C[C@H]2O)cc1	
0.21 µM	> 10 µM		> 10 µM	N#Cc1cccc(CC[C@H](O)CC[C@@H]2[C@@H](CCCCCCC(=O)O)[C@@H](O)C[C@H]2O)c1	IC50 [26]: > 10 µM
3.63 µM				O=C(O)CCCCCC[C@@H]1[C@@H](CC[C@@H](O)CCc2ccc(C(F)(F)F)cc2)[C@H](O)C[C@@H]1O	
